Laboratory results as given in patent publication US20260108646A1, “METHOD AND DEVICE FOR DI[…]/OR S[…]” (SCHWING TECHNOLOGIES GMBH, priority 2022, published 2026).

Assays:
[1] = test system: Geobacillus stearothermophilus spores; assay: Validation tests for disinfection of laboratory utensils sprinkled with spore suspension SAL 10^6; format: cell-based; settings: for Biological Result #not sterile/#tested: PES in solution 4 %
[2] = test system: Geobacillus stearothermophilus spores; assay: Validation tests for disinfection of bio-indicator spore strips SAL 10^5; format: cell-based; settings: 50-55° C.
[3] = test system: human patellar tendon allografts; settings: in vitro study, human patellar tendon allografts [98]; cited from earlier work

CC(=O)OO [PES, peracetic acid]
Biological Result #not sterile/#tested ([1]; test 5, PES in process chamber 1.9 g/m^3, process duration 120 min): 0/4 | Biological Result #not sterile/#tested ([1]; test 7, PES in process chamber 1.9 g/m^3, process duration 60 min): 0/4 | Biological Result #not sterile/#tested ([1]; test 8, PES in process chamber 1.9 g/m^3, process duration 45 min): 0/4 | Biological Result #not sterile/#tested ([1]; test 12, PES in process chamber 1.9 g/m^3, process duration 15 min): 0/4 | Biological Result #not sterile/#tested ([1]; test 13, PES in process chamber 1.9 g/m^3, process duration 10 min): 0/4 | Biological Result #not sterile/#tested ([1]; test 14, PES in process chamber 1.9 g/m^3, process duration 5 min): 0/4 | Biological Result #not sterile/#tested ([1]; test 15, PES in process chamber 1.7 g/m^3, process duration 20 min): 0/4 | Biological Result #not sterile/#tested ([1]; test 16, PES in process chamber 1.7 g/m^3, process duration 15 min): 0/4 | Biological Result #not sterile/#tested ([1]; test 19, PES in process chamber 1.3 g/m^3, process duration 20 min): 0/4 | Biological Result #not sterile/#tested ([1]; test 20, PES in process chamber 1.3 g/m^3, process duration 15 min): 0/4 | Biological Result #not sterile/#tested ([1]; test 21, PES in process chamber 0.94 g/m^3, process duration 60 min): 0/4 | Biological Result #not sterile/#tested ([1]; test 22, PES in process chamber 0.94 g/m^3, process duration 40 min): 0/4 | Biological Result #not sterile/#tested ([1]; test 23, PES in process chamber 0.94 g/m^3, process duration 30 min, not sterile: pipette): (pipette) 1/8 | Biological Result #not sterile/#tested ([1]; test 24, PES in process chamber 0.94 g/m^3, process duration 20 min): 0/8 | Biological Result #not sterile/#tested ([1]; test 25, PES in process chamber 0.94 g/m^3, process duration 15 min, not sterile: pipette): (pipette) 1/4 | Biological Result #not sterile/#tested ([1]; test 26, PES in process chamber 0.94 g/m^3, process duration 10 min): 0/4 | Biological Result #not sterile/#tested ([1]; test 27, PES in process chamber 0.94 g/m^3, process duration 5 min, not sterile: pipette): (pipette) 1/4 | Biological Result #not sterile/#tested ([1]; test 28, PES in process chamber 0.47 g/m^3, process duration 60 min): 0/4 | Biological Result #not sterile/#tested ([1]; test 29, PES in process chamber 0.47 g/m^3, process duration 30 min): 0/4 | Biological Result #not sterile/#tested ([1]; test 30, PES in process chamber 0.47 g/m^3, process duration 15 min, not sterile: Eppi): (Eppi) 1/4 | Biological Result #not sterile/#tested ([1]; test 31, PES in process chamber 0.47 g/m^3, process duration 10 min, not sterile: pipette): (pipette) 1/4 | Biological Result #not sterile/#tested ([1]; test 32, PES in process chamber 0.47 g/m^3, process duration 5 min, not sterile: mask, pipette): (mask, pipette) 2/4 | spore growth after seven days in nutrient solution ([1]; various tests, relatively low PES concentration in the process chamber and short process duration): spore growth was observed after seven days | growth or proliferation of the spores after treatment ([2]; all spore strips tested at different PES concentrations and different processing times): no growth or proliferation of the spores could be detected | Biological Result #not sterile/#tested ([2]; test 1, PES in solution 6 %, PES in process chamber 3 g/m^3, process duration 240 min): 0/2 | Biological Result #not sterile/#tested ([2]; test 2, PES in solution 6 %, PES in process chamber 3 g/m^3, process duration 120 min): 0/1 | Biological Result #not sterile/#tested ([2]; test 3, PES in solution 6 %, PES in process chamber 1.7 g/m^3, process duration 150 min): 0/2 | Biological Result #not sterile/#tested ([2]; test 4, PES in solution 4 %, PES in process chamber 2 g/m^3, process duration 120 min): 0/1 | Biological Result #not sterile/#tested ([2]; test 5, PES in solution 4 %, PES in process chamber 1.9 g/m^3, process duration 120 min): 0/2 | Biological Result #not sterile/#tested ([2]; test 6, PES in solution 4 %, PES in process chamber 1.9 g/m^3, process duration 90 min): 0/2 | Biological Result #not sterile/#tested ([2]; test 7, PES in solution 4 %, PES in process chamber 1.9 g/m^3, process duration 60 min): 0/4 | Biological Result #not sterile/#tested ([2]; test 8, PES in solution 4 %, PES in process chamber 1.9 g/m^3, process duration 45 min): 0/1 | Biological Result #not sterile/#tested ([2]; test 9, PES in solution 4 %, PES in process chamber 1.9 g/m^3, process duration 40 min): 0/2 | Biological Result #not sterile/#tested ([2]; test 10, PES in solution 4 %, PES in process chamber 1.9 g/m^3, process duration 30 min): 0/2 | Biological Result #not sterile/#tested ([2]; test 11, PES in solution 4 %, PES in process chamber 1.9 g/m^3, process duration 20 min): 0/2 | Biological Result #not sterile/#tested ([2]; test 12, PES in solution 4 %, PES in process chamber 1.9 g/m^3, process duration 15 min): 0/1 | Biological Result #not sterile/#tested ([2]; test 13, PES in solution 4 %, PES in process chamber 1.9 g/m^3, process duration 10 min): 0/1 | Biological Result #not sterile/#tested ([2]; test 14, PES in solution 4 %, PES in process chamber 1.9 g/m^3, process duration 5 min): 0/1 | Biological Result #not sterile/#tested ([2]; test 15, PES in solution 4 %, PES in process chamber 1.7 g/m^3, process duration 20 min): 0/1 | Biological Result #not sterile/#tested ([2]; test 16, PES in solution 4 %, PES in process chamber 1.7 g/m^3, process duration 15 min): 0/1 | Biological Result #not sterile/#tested ([2]; test 17, PES in solution 4 %, PES in process chamber 1.5 g/m^3, process duration 240 min): 0/2 | Biological Result #not sterile/#tested ([2]; test 18, PES in solution 4 %, PES in process chamber 1.5 g/m^3, process duration 150 min): 0/2 | Biological Result #not sterile/#tested ([2]; test 19, PES in solution 4 %, PES in process chamber 1.3 g/m^3, process duration 20 min): 0/1 | Biological Result #not sterile/#tested ([2]; test 20, PES in solution 4 %, PES in process chamber 1.3 g/m^3, process duration 15 min): 0/1 | Biological Result #not sterile/#tested ([2]; test 21, PES in solution 4 %, PES in process chamber 0.94 g/m^3, process duration 60 min): 0/5 | Biological Result #not sterile/#tested ([2]; test 22, PES in solution 4 %, PES in process chamber 0.94 g/m^3, process duration 40 min): 0/1 | Biological Result #not sterile/#tested ([2]; test 23, PES in solution 4 %, PES in process chamber 0.94 g/m^3, process duration 30 min): 0/2 | Biological Result #not sterile/#tested ([2]; test 24, PES in solution 4 %, PES in process chamber 0.94 g/m^3, process duration 20 min): 0/2 | Biological Result #not sterile/#tested ([2]; test 25, PES in solution 4 %, PES in process chamber 0.94 g/m^3, process duration 15 min): 0/1 | Biological Result #not sterile/#tested ([2]; test 26, PES in solution 4 %, PES in process chamber 0.94 g/m^3, process duration 10 min): 0/1 | Biological Result #not sterile/#tested ([2]; test 27, PES in solution 4 %, PES in process chamber 0.94 g/m^3, process duration 5 min): 0/1 | Biological Result #not sterile/#tested ([2]; test 28, PES in solution 4 %, PES in process chamber 0.47 g/m^3, process duration 60 min): 0/1 | Biological Result #not sterile/#tested ([2]; test 29, PES in solution 4 %, PES in process chamber 0.47 g/m^3, process duration 30 min): 0/1 | Biological Result #not sterile/#tested ([2]; test 30, PES in solution 4 %, PES in process chamber 0.47 g/m^3, process duration 15 min): 0/1 | Biological Result #not sterile/#tested ([2]; test 31, PES in solution 4 %, PES in process chamber 0.47 g/m^3, process duration 10 min): 0/1 | Biological Result #not sterile/#tested ([2]; test 32, PES in solution 4 %, PES in process chamber 0.47 g/m^3, process duration 5 min): 0/1 | cytotoxic and pro-inflammatory effects [3]: neither cytotoxic nor pro-inflammatory effects
